Test results from article PMC2760403 (The Journal of organic chemistry, 2009).

Assays:
Format in all cases: biochemical
[1] = molecular target: E. coli Riboflavin Synthase (Escherichia coli, UniProt P0AFU8); assay: Riboflavin synthase kinetic inhibition assay; settings: recombinant E. coli RS
[2] = molecular target: M. tuberculosis Lumazine Synthase (Mycobacterium tuberculosis, UniProt P9WHE9); settings: recombinant M. tuberculosis LS; for kcat (rate constant ES → E + P): fit of the compound's data set; for kcat (rate constant ES → E + P) / Kis (inhibitor dissociation constant, ES + I ⇌ ESI): pH 7.0; for Kis (inhibitor dissociation constant, ES + I ⇌ ESI): substrate 1 varied, 2 constant
[3] = molecular target: T1, S. pombe Lumazine Synthase (Schizosaccharomyces pombe, UniProt Q9UUB1); assay: Lumazine synthase kinetic inhibition assay; settings: recombinant S. pombe LS; for kcat (rate constant ES → E + P): fit of the compound's data set; for kcat (rate constant ES → E + P) / Kis (inhibitor dissociation constant, ES + I ⇌ ESI): pH 7.0; for Kis (inhibitor dissociation constant, ES + I ⇌ ESI): substrate 1 varied, 2 constant
T1 sequence (Q9UUB1 1-159): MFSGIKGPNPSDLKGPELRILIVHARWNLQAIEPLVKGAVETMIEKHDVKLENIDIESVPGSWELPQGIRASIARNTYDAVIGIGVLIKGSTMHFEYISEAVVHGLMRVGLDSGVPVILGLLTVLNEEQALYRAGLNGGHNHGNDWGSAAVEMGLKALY

M. tuberculosis Lumazine Synthase, sequence (P9WHE9 whole entry): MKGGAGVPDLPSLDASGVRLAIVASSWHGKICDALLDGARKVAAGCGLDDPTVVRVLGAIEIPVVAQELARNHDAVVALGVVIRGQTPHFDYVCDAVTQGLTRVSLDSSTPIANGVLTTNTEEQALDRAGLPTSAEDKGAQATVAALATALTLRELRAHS
E. coli Riboflavin Synthase, sequence (P0AFU8 whole entry): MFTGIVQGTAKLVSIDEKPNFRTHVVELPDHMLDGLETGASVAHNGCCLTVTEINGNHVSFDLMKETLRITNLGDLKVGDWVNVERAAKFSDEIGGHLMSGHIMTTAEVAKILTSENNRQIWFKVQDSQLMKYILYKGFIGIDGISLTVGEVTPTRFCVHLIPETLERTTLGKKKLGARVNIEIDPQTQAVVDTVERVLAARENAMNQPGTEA

Compound | Mode of inhibition [1] | kcat (rate constant ES → E + P) ([1]; fit of the compound's data set, pH 7.0) | Kis (inhibitor dissociation constant, ES + I ⇌ ESI) ([1]; pH 7.0) | Mode of inhibition [2] | kcat (rate constant ES → E + P) [2] | Kis (inhibitor dissociation constant, ES + I ⇌ ESI) [2] | Mode of inhibition [3] | kcat (rate constant ES → E + P) [3] | Kis (inhibitor dissociation constant, ES + I ⇌ ESI) [3]
5-Amino-(2-hydroxy-2-phenethyl)pyrimidine-2,4-(1H,3H)-dione [Compound 50] | Uncompetitive | 0.07 ± 0.0017 s⁻¹ | 788 ± 148 µM | – | – | – | – | – | –
O=c1[nH]c(/C=C/c2ccccc2[N+](=O)[O-])c([N+](=O)[O-])c(=O)[nH]1 [Compound 14, (E)-6-(2-Nitrostyryl)-5-nitropyrimidine-2,4(1H,3H)-dione] | – | – | – | Partial | 0.00517 ± 0.00017 s⁻¹ | 49 ± 12 µM | – | – | –
COc1ccccc1/C=C/c1[nH]c(=O)[nH]c(=O)c1[N+](=O)[O-] [Compound 19, (E)-6-(2-Methoxystyryl)-5-nitropyrimidine-2,4(1H,3H)-dione] | – | – | – | Partial | 0.00537 ± 6.7e-05 s⁻¹ | 44 ± 10 µM | Mixed | 0.0285 ± 0.00017 s⁻¹ | 733 ± 227 µM
COc1ccc(/C=C/c2[nH]c(=O)[nH]c(=O)c2[N+](=O)[O-])cc1O [Compound 20, (E)-6-(3-Hydroxy-4-methoxystyryl)-5-nitropyrimidine-2,4(1H,3H)-dione] | – | – | – | Mixed | 0.00467 ± 0.00017 s⁻¹ | 74 ± 12 µM | Uncompetitive | 0.0235 ± 0.00033 s⁻¹ | 38 ± 2 µM
COc1cccc(/C=C/c2[nH]c(=O)[nH]c(=O)c2[N+](=O)[O-])c1OC [Compound 21, (E)-6-(2,3-Dimethoxystyryl)-5-nitropyrimidine-2,4(1H,3H)-dione] | – | – | – | Mixed | 0.0055 ± 0.00017 s⁻¹ | 22 ± 6 µM | Competitive | 0.0368 ± 0.00033 s⁻¹ | –
COc1ccc(/C=C/c2[nH]c(=O)[nH]c(=O)c2[N+](=O)[O-])cc1OC [Compound 22, (E)-6-(3,4-Dimethoxystyryl)-5-nitropyrimidine-2,4(1H,3H)-dione] | – | – | – | Mixed | 0.0055 ± 0.00017 s⁻¹ | 32 ± 3 µM | – | – | –
COc1ccc(/C=C/c2[nH]c(=O)[nH]c(=O)c2[N+](=O)[O-])c(OC)c1OC [Compound 23, (E)-6-(2,3,4-Trimethoxystyryl)-5-nitropyrimidine-2,4(1H,3H)-dione] | – | – | – | Mixed | 0.00567 ± 0.00017 s⁻¹ | 97 ± 24 µM | – | – | –
COc1cc(/C=C/c2[nH]c(=O)[nH]c(=O)c2[N+](=O)[O-])cc(OC)c1OC [Compound 24, (E)-6-(3,4,5-Trimethoxystyryl)-5-nitropyrimidine-2,4(1H,3H)-dione] | – | – | – | Mixed | 0.0045 ± 0.00017 s⁻¹ | 37 ± 5 µM | Uncompetitive | 0.0233 ± 0.0005 s⁻¹ | 47 ± 4 µM
O=c1[nH]c(/C=C/c2cccc([N+](=O)[O-])c2)c([N+](=O)[O-])c(=O)[nH]1 [Compound 25, (E)-5-Nitro-6-(3-nitrostyryl)pyrimidine-2,4(1H,3H)-dione] | – | – | – | Mixed | 0.0055 ± 0.00017 s⁻¹ | 173 ± 50 µM | Mixed | 0.019 ± 0.00033 s⁻¹ | 496 ± 219 µM
O=c1[nH]c(/C=C/c2ccc([N+](=O)[O-])cc2)c([N+](=O)[O-])c(=O)[nH]1 [Compound 26, (E)-5-Nitro-6-(4-nitrostyryl)pyrimidine-2,4(1H,3H)-dione] | – | – | – | Mixed | 0.0075 ± 0.00017 s⁻¹ | 37 ± 17 µM | Partial | 0.0217 ± 0.00033 s⁻¹ | 15 ± 5 µM
O=C(O)c1ccc(/C=C/c2[nH]c(=O)[nH]c(=O)c2[N+](=O)[O-])cc1 [Compound 27, (E)-4-(2-(5-Nitro-2,6-dioxo-1,2,3,6-tetrahydropyrimidine-4-yl)vinyl)benzoic Acid] | – | – | – | Partial | 0.00588 ± 6.7e-05 s⁻¹ | 78 ± 38 µM | Mixed | 0.0232 ± 0.0005 s⁻¹ | 187 ± 43 µM
O=c1[nH]c(/C=C/c2ccccc2F)c([N+](=O)[O-])c(=O)[nH]1 [Compound 28, (E)-6-(2-Fluorostyryl)-5-nitropyrimidine-2,4(1H,3H)-dione] | – | – | – | Mixed | 0.0045 ± 0.00017 s⁻¹ | 13 ± 3 µM | – | – | –
O=c1[nH]c(/C=C/c2ccc(Br)cc2)c([N+](=O)[O-])c(=O)[nH]1 [Compound 30, (E)-5-Nitro-6-(4-bromostyryl)pyrimidine-2,4(1H,3H)-dione] | – | – | – | Mixed | 0.00567 ± 0.00017 s⁻¹ | 234 ± 59 µM | Uncompetitive | 0.0205 ± 0.00017 s⁻¹ | 604 ± 54 µM
O=c1[nH]c(/C=C/c2ccc(Cl)cc2)c([N+](=O)[O-])c(=O)[nH]1 [Compound 31, (E)-6-(4-Chlorostyryl)-5-nitropyrimidine-2,4(1H,3H)-dione] | – | – | – | Mixed | 0.00617 ± 0.00017 s⁻¹ | 188 ± 38 µM | – | – | –
COc1ccc([N+](=O)[O-])cc1/C=C/c1[nH]c(=O)[nH]c(=O)c1[N+](=O)[O-] [Compound 34, (E)-6-(2-Methoxy-5-nitrostyryl)-5-nitropyrimidine-2,4(1H,3H)-dione] | – | – | – | Mixed | 0.00633 ± 0.00017 s⁻¹ | 225 ± 59 µM | Mixed | 0.0182 ± 0.00033 s⁻¹ | 682 ± 409 µM
O=c1[nH]c(/C=C/c2ccc(O)c([N+](=O)[O-])c2)c([N+](=O)[O-])c(=O)[nH]1 [Compound 36, (E)-6-(4-Hydroxy-3-nitrostyryl)-5-nitropyrimidine-2,4(1H,3H)-dione] | – | – | – | Mixed | 0.00617 ± 0.00017 s⁻¹ | 461 ± 150 µM | Uncompetitive | 0.022 ± 0.00017 s⁻¹ | 276 ± 16 µM
O=C(O)c1ccc(/C=C/c2[nH]c(=O)[nH]c(=O)c2[N+](=O)[O-])c(O)c1 [Compound 37, (E)-3-Hydroxy-4-(2-(5-nitro-2,6-dioxo-1,2,3,6-tetrahydropyrimidine-4-yl)vinyl)benzoic Acid] | – | – | – | Mixed | 0.00667 ± 0.00017 s⁻¹ | 468 ± 113 µM | Mixed | 0.0273 ± 0.00033 s⁻¹ | 921 ± 640 µM
COc1cccc(/C=C/c2[nH]c(=O)[nH]c(=O)c2[N+](=O)[O-])c1F [Compound 38, (E)-6-(2-Fluoro-3-methoxystyryl)-5-nitropyrimidine-2,4(1H,3H)-dione] | – | – | – | Mixed | 0.00583 ± 0.00017 s⁻¹ | 89 ± 11 µM | Mixed | 0.0165 ± 0.00017 s⁻¹ | 390 ± 90 µM
O=c1[nH]c(C=Cc2ccccc2)c([N+](=O)[O-])c(=O)[nH]1 [Compound 39, 5-Nitro-6-styryluracil] | – | – | – | Partial | – | 15 ± 4 µM | Competitive | 0.0367 ± 0.0017 s⁻¹ | –
O=c1[nH]c(/C=C/c2cccnc2)c([N+](=O)[O-])c(=O)[nH]1 [Compound 42, (E)-5-Nitro-6-(3-(pyridine-3-yl)vinyl)pyrimidine-2,4(1H,3H)-dione] | – | – | – | Partial | 0.007 ± 0.00017 s⁻¹ | 24 ± 10 µM | – | – | –
O=c1[nH]c(NCc2ccccc2)c([N+](=O)[O-])c(=O)[nH]1 [Compound 45, 6-(Benzylamino)-5-nitropyrimidine-2,4(1H,3H)-dione] | – | – | – | Uncompetitive | 0.00933 ± 0.00017 s⁻¹ | 823 ± 128 µM | – | – | –
O=c1[nH]c(NCc2ccccc2O)c([N+](=O)[O-])c(=O)[nH]1 [Compound 46, 6-(2-Hydroxybenzylamino)-5-nitropyrimidine-2,4(1H,3H)-dione] | – | – | – | Uncompetitive | 0.0103 ± 0.00033 s⁻¹ | 904 ± 193 µM | – | – | –
O=C1OC(Cc2[nH]c(=O)[nH]c(=O)c2[N+](=O)[O-])c2ccccc21 (stereo not drawn) [Compound 49, 5-Nitro-6-[(3-oxo-1,3-dihydroisobenzofuran-1-yl)methyl]pyrimidine-2,4-(1H,3H)-dione] | – | – | – | – | – | – | Uncompetitive | 0.0187 ± 0.00033 s⁻¹ | 154 ± 13 µM
